Results as given in US10143642B2, “Sunscreen molecule and compositions thereof” (Conopco, Inc., priority 2013, dated 2018).

Assay: Stability of sunscreen actives on HPTLC plates exposed to UV radiation (densitometry)
Type: physicochemical
Details: HPTLC plate, densitometry scan at 357 nm; for % active, 0 hr: UV radiation 5.5 mW/cm^2, 0 hr exposure; for % active, 1 hr: UV radiation 5.5 mW/cm^2, 1 hr exposure; for % active, 2 hr: UV radiation 5.5 mW/cm^2, 2 hr exposure
Description: Sunscreen actives singly or as combinations as shown in Table-1 were checked for stability using the following procedure:
The method was based on spotting the HPTLC plates (in duplicate) with the sunscreen molecules of interest along with potential quencher molecules or formulations. The plate is then exposed to UV radiation (intensity 5.5 mW/cm^2) for 120 minutes. Following this the chromatographic separation was carried out using appropriate solvent system. Densitometry analysis is done to determine the amount of sunscreen degraded. Stock solutions were prepared in methanol following the ratios as mentioned in the following table. 14 μL of stock solutions were loaded (3 mm width; 16 mm separation) on a 10×10 cm F254 HPTLC plate, using CAMAG LINOMAT 5 applicator equipped with a 100 μL micro-syringe (Hamilton, Switzerland). Ascending chromatography was performed at a distance of 85 mm in a TLC chamber using n-hexane-ethyl acetate 9:1 (v/v) as the mobile phase (˜10 mL). The plates were dried at room temperature and subjected to ultraviolet absorption densitometry scan. The concentration dependent fluorescent bands due to presence of sunscreens were detected with a linear scan at 357 nm, using Camag TLC Scanner 3, in the presence of deuterium source. Slit width of 8×0.4 mm and scanning rate of 20 mm s^−1 were maintained during each densitometry scan. Concentrations of Parsol 1789 & the compound of present invention on each lane were determined from densitogram peak areas; prior and after the sun exposure using Win CATS Planar chromatography manager software.

Row | Structure (SMILES) | % active, 0 hr [%] | % active, 1 hr [%] | % active, 2 hr [%]
1 | COC(=O)CCC(C)C1CCC2C3C(OC(=O)COc4ccc(C(=O)/C=C(\O)c5ccc(C(C)(C)C)cc5)cc4)C[C@@H]4CC(OC(=O)C(C#N)=C(c5ccccc5)c5ccccc5)CCC4(C)C3CCC12C (stereo partly drawn) [Example 5, UVB & UVA modified methyl ester of chenodeoxy cholic acid] | 100 | 93 | 86
2 | COc1ccc(/C(O)=C/C(=O)c2ccc(C(C)(C)C)cc2)cc1 [Example 1, Parsol 1789] | 100 | 28 | 5
